Values of other authors as cited in patent US11439626B2 (Icahn School of Medicine at Mount Sinai, priority 2019, dated 2022).
Read-outs that look alike come from different tables or passages of the source.

Experiments:
[1] = test system: patients with traumatic spinal cord injuries; details: cervical injuries, 90 days post-injury
[2] = not given; remark: listed apart in the source
[3] = for % Abs: 100 mg dose

dose recovered in the urine (human, in vivo): 90% | dose recovered in the urine as glucuronides (human, in vivo): 85% | dose recovered in the urine as unchanged riluzole (human, in vivo): 2% | fecal excretion of administered dose (human, in vivo): 5% | accumulation (repeated twice daily dosing): approximately 2 fold | trough concentrations ([2]; 50 mg twice daily, non-smoking males, predicted profile (Bruno et al.)): ~0.03 µg/mL | Proportional error ([2]; error model parameter (SIGMA)): 0.0697 | V/F Inter-occasion variability ([2]; variability parameter (ETA)): 0.111 | Cmin ([3]; 100 mg BID treatment arm, reported by Le Liboux et al.): ~40 ng/mL | % Abs ([3]; Fasted (observed)): 100% | % Abs ([3]; Fed (observed)): 80%
Compound: Nc1nc2ccc(OC(F)(F)F)cc2s1 [riluzole, 2-Amino-6-(trifluoromethoxy)benzothiazole]
motor outcomes [1]: improved motor outcomes
